From patent publication US6656952B2, “Cis-substituted fluoromethylpyrrolidine derivative” (Daiichi Pharmaceutical Co., Ltd., priority 1997, dated 2003) come the findings set out here.

The test system of one data set is mouse peripheral blood. The experiment in a line: Mouse peripheral blood micronucleus test. Format: in vivo.
The test system of the next data set is E. coli, NIHJ. Kind of data set: Antibacterial activity (MIC), standard method of the Japan Society of Chemotherapy. Format: cell-based. Conditions: Escherichia coli, read-out: Antibacterial activity (minimum inhibitory concentration). On the procedure:
(§1) Examples of the present invention are given below by way of illustration and not by way of limitation. The antibacterial activity of each compound of interest was measured in accordance with the standard method specified by the Japan Society of Chemotherapy, with the results shown in Table 1 as MIC values (μg/ml).

Another data set has as its system Pr. mirabilis, IFO- 3849. The data set is described as above. The following applies: Proteus mirabilis, IFO3849, read-out: Antibacterial activity (minimum inhibitory concentration). Format: cell-based. On the procedure: as §1
For another data set, the system named is Pr. vulgaris, 08601. The description is as above. Format: cell-based. Conditions: Proteus vulgaris, read-out: Antibacterial activity (minimum inhibitory concentration). How it is done: as §1
The next data set has as its system Ps. aeruginosa, 32104. The data set is described as above. Conditions: Pseudomonas aeruginosa, read-out: Antibacterial activity (minimum inhibitory concentration). Format: cell-based. On the procedure: as §1
In a further data set the test system is Ps. aeruginosa, 32121. Described as above. Conditions: Pseudomonas aeruginosa, read-out: Antibacterial activity (minimum inhibitory concentration). Format: cell-based. How it is done: as §1
In the next data set the test system is S. aureus, 209P. Described as above. Conditions: Staphylococcus aureus, read-out: Antibacterial activity (minimum inhibitory concentration). Format: cell-based. How it is done: as §1
Another data set has as its system S. aureus, 870307. Described as above. It is filed as cell-based. Conditions: Staphylococcus aureus, read-out: Antibacterial activity (minimum inhibitory concentration). How it is done:
as §1

A further data set relates to S. epidermidis, 56500. The data set is described as above. Format: cell-based. Conditions: Staphylococcus epidermidis, read-out: Antibacterial activity (minimum inhibitory concentration). On the procedure: as §1
The next data set has as its system S. flexneli, 2A 5503. The data set is described as above. Format: cell-based. The following applies: read-out: Antibacterial activity (minimum inhibitory concentration). On the procedure:
as §1

Another data set relates to Ser. marcescens, 10100. The description is as above. The following applies: Serratia marcescens, read-out: Antibacterial activity (minimum inhibitory concentration). Format: cell-based. How it is done: as §1
In data set [1] the test system is Str. faecalis, ATCC-19433. The description is as above. The following applies: Enterococcus faecalis, ATCC19433, read-out: Antibacterial activity (minimum inhibitory concentration). It is filed as cell-based. How it is done: as §1
In the next data set the test system is Str. pyogenes, G-36. The data set is described as above. Format: cell-based. The following applies: Streptococcus pyogenes, G36, read-out: Antibacterial activity (minimum inhibitory concentration). How it is done:
as §1

The next data set concerns X. maltophilia, IID 1275. The description is as above. Format: cell-based. Conditions: Stenotrophomonas maltophilia, IID1275, read-out: Antibacterial activity (minimum inhibitory concentration). On the procedure: as §1

Converted amounts (≈) assume the structure as drawn.

With `COc1c(N2C[C@@H](N)[C@@H](C)C2)c(F)cc2c(=O)c(C(=O)O)cn(C3CC3)c12` [formula (VI)], the “micronucleus test (micronucleus inducing action)” value in the data set with mouse peripheral blood is “positive”.
Regarding `COc1c(N2C[C@@H](CF)[C@@H](N)C2)c(F)cc2c(=O)c(C(=O)O)cn(C3CC3)c12` [Comp. Ex. 1, 7-[3-(R)-Amino-4-(R)-fluoromethyl-1-pyrrolidinyl]-1-cyclopropyl-6-fluoro-1,4-dihydro-8-methoxy-4-oxoquinoline-3-carboxylic acid, reference compound], the MIC is not above 0.003 µg/mL in the data set on E. coli, NIHJ; 0.1 µg/mL (≈ 0.254 µM) with Pr. mirabilis, IFO- 3849; 0.013 µg/mL (≈ 0.033 µM) in the data set on Pr. vulgaris, 08601; 0.2 µg/mL (≈ 0.508 µM) in the data set on Ps. aeruginosa, 32104; 0.1 µg/mL (≈ 0.254 µM) with Ps. aeruginosa, 32121; 0.025 µg/mL (≈ 0.0636 µM) in the data set on S. aureus, 209P. The MIC with S. aureus, 870307 came out at 0.78 µg/mL (≈ 1.98 µM); in the data set with S. epidermidis, 56500 it was 0.1 µg/mL (≈ 0.254 µM); with S. flexneli, 2A 5503 it was 0.013 µg/mL (≈ 0.033 µM); in the data set on Ser. marcescens, 10100, 0.1 µg/mL (≈ 0.254 µM); in data set [1], 0.2 µg/mL (≈ 0.508 µM); in the data set on Str. pyogenes, G-36, 0.2 µg/mL (≈ 0.508 µM). Further, in the data set on X. maltophilia, IID 1275, the MIC turned out to be 0.2 µg/mL (≈ 0.508 µM).
With `COc1c(N2C[C@H](CF)[C@H](N)C2)c(F)cc2c(=O)c(C(=O)O)cn([C@@H]3C[C@@H]3F)c12` [Ex. 1, 7-[3-(S)-Amino-4-(S)-fluoromethyl-1-pyrrolidinyl]-6-fluoro-1-[2-(S)-fluoro-1-(R)-cyclopropyl]-1,4-dihydro-8-methoxy-4-oxoquinoline-3-carboxylic acid], the MIC in the data set with E. coli, NIHJ was not above 0.003 µg/mL; in the data set with Pr. mirabilis, IFO- 3849 it was 0.025 µg/mL (≈ 0.0608 µM); in the data set on Pr. vulgaris, 08601, 0.013 µg/mL (≈ 0.0316 µM); in the data set on Ps. aeruginosa, 32104, 0.2 µg/mL (≈ 0.486 µM); in the data set on Ps. aeruginosa, 32121, 0.05 µg/mL (≈ 0.122 µM); with S. aureus, 209P it was 0.013 µg/mL (≈ 0.0316 µM). The MIC was 0.2 µg/mL (≈ 0.486 µM) with S. aureus, 870307; 0.05 µg/mL (≈ 0.122 µM) in the data set on S. epidermidis, 56500; 0.006 µg/mL (≈ 0.0146 µM) in the data set with S. flexneli, 2A 5503; 0.05 µg/mL (≈ 0.122 µM) with Ser. marcescens, 10100; 0.1 µg/mL (≈ 0.243 µM) in [1]; 0.1 µg/mL (≈ 0.243 µM) in the data set on Str. pyogenes, G-36. Besides, in the data set on X. maltophilia, IID 1275, the MIC was found to be 0.2 µg/mL (≈ 0.486 µM).
On to `COc1c(N2C[C@H](CF)[C@H](N)C2)c(F)cc2c(=O)c(C(=O)O)cn(C3CC3)c12` [Ex. 2, 7-[3-(S)-Amino-4-(S)-fluoromethyl-1-pyrrolidinyl]-1-cyclopropyl-6-fluoro-1,4-dihydro-8-methoxy-4-oxoquinoline-3-carboxylic acid], for which the MIC in the data set with E. coli, NIHJ is not above 0.003 µg/mL; in the data set with Pr. mirabilis, IFO- 3849, 0.05 µg/mL (≈ 0.127 µM); with Pr. vulgaris, 08601, 0.013 µg/mL (≈ 0.033 µM); in the data set on Ps. aeruginosa, 32104, 0.2 µg/mL (≈ 0.508 µM); with Ps. aeruginosa, 32121, 0.1 µg/mL (≈ 0.254 µM); in the data set on S. aureus, 209P, 0.013 µg/mL (≈ 0.033 µM). For the same compound, the MIC in the data set with S. aureus, 870307 was found to be 0.39 µg/mL (≈ 0.991 µM); with S. epidermidis, 56500 it was 0.05 µg/mL (≈ 0.127 µM); in the data set on S. flexneli, 2A 5503, 0.006 µg/mL (≈ 0.0153 µM); with Ser. marcescens, 10100, 0.05 µg/mL (≈ 0.127 µM); in [1] it was 0.1 µg/mL (≈ 0.254 µM); in the data set on Str. pyogenes, G-36, 0.1 µg/mL (≈ 0.254 µM). Further, the MIC with X. maltophilia, IID 1275 came to 0.1 µg/mL (≈ 0.254 µM).
